In general, IC50 refers to the point on the concentration scale where inhibition reaches its midpoint.

Like-named read-outs stand apart in the source and are kept apart here.

Among the data in patent publication US12291522B2, “Galectin-3 inhibitors” (BRISTOL-MYERS SQUIBB COMPANY, priority 2020, dated 2025) are IC50 values, retold here.

Test [1] has as its target His-tagged recombinant human Gal-3 (hGal-3) (Homo sapiens, UniProt P17931). Description: Gal-3 HTRF assay (His-tagged hGal-3 / B-ASF). In kind it is binding. The conditions noted are these: 15 nM hGal-3, 15 nM B-ASF. As to the method: ASSAY BUFFER Composition: 25 mM HEPES, 100 mM NaCl, 0.005% Tween 20, 0.05% BSA prepared in sterile water (all reagents from Sigma).
• Positive Control: 100% DMSO (1 μL)+His-tagged hGal-3 (20 μL)+B-ASF (20 μL)+Anti-His Terbium Antibody (5 μL)+Strep d2 Antibody (5 μL). • Negative Control: 100% DMSO (1 μL)+His-tagged hGal-3 (20 μL)+Anti His Terbium Antibody (5 μL)+Strep d2 Aantibody (5 μL). Stocks Preparation:
PROTOCOL: The Gal-3 assays were performed in 384 white Opti plates in three replicates at room temperature with gentle shaking at 250-300 rpmFrom the original stocks, […] working stock concentrations of His-tagged recombinant human Gal-3 (hGal-3) and that of B-ASF were prepared. From the working stock, 20 μL of hGal-3 (15 nM) and 20 μL B-ASF (15 nM) were added to the plates. In Negative Control, only hGal-3 was added. A concentration range of 50× working stocks were prepared for the compounds in 100% DMSO. Aliquots of luL of the compounds were added to the wells and pre-incubated with 20 μL hGal-3 per well for 30 minutes Then 20 μL B-ASF wereadded and incubated for another 1 hour. To detect the signal, 5 μL (final conc. of 1.0 nM) terbium labelled Anti-His antibody was added and incubated for 30 min followed by adding 5 μL (final conc. of 20 nM) Streptavidin d2 and incubation for another 1 hour. The assay signal was detected using HTRF screen protocol (Excitation wavelength=340 nm, emission wavelength=615 nm/665 nm) on Envision 2104 Multilabel Reader. Data analysed using Toolset and Curve Master. Results are reported in the experimental section (IC50 in μM).
A general note: Time-resolved FRET reads energy transfer from a long-lived donor to a nearby acceptor.

Test [2] deals with T1, hCRBN (NanoLuc-CRBN fusion construct in HEK-293 cells) (Homo sapiens, UniProt Q96SW2).
T1 construct: expressed in transfected cells; host or cells: HEK-293
T1 sequence (Q96SW2 whole entry, the tested form may be a part): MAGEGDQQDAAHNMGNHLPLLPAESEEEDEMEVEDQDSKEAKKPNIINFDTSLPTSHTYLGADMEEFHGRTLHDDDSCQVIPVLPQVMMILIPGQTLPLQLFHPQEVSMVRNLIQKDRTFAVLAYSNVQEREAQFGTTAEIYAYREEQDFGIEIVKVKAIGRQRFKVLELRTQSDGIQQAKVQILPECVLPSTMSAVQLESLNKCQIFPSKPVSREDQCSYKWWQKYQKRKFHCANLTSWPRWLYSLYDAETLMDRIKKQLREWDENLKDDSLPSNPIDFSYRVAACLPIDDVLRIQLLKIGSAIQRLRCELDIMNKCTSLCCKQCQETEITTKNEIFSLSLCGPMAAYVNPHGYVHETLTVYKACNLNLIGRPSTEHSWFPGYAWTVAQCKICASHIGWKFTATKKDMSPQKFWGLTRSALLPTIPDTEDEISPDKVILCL
Description: CRBN BRET Target Engagement. The format is cell-based. The conditions noted are these: NanoLuc-CRBN transfected HEK-293 cells, BRET with CRBN Probe. How it is done: CRBN BRET Target Engagement (hCRBN IC50 (μM))
NanoLuc-CRBN fusion construct was transfected in HEK-293 cells using FuGENE HD (Promega) according to the manufacturer's protocol. In brief, Nluc-CRBN was diluted into Transfection Carrier DNA (Promega) 1:10 (mass/mass), to which FuGENE HD was 1:3 (μg DNA:μL FuGENE HD). One part (vol) of DNA:FuGENE HD complexes were combined with 20 parts (vol) of HEK-293 cells suspended at a density of […]. Cells were incubated for ˜20 hr at 37° C./5% CO2. Following transfection, cells were washed and resuspended at 200,000 cells/mL in OptiMEM without phenol red (Gibco).
For BRET measurements, cells were seeded in a 384-well nonbinding surface plate (Corning) plate for a final count of 10,000 cells/well. Compounds were dissolved at 10 mM in dimethylsulfoxide (DMSO) and evaluated at eleven concentrations using a high concentration of […]. CRBN Probe was used for equilibrium measurements, employing a final concentration of approximately EC50-80. For live-cell measurements, 20 nM of CRBN Probe was added. For the live-cell assay conditions, the plates were incubated for 2 hours at 37° C./5% CO2. NanoBRET NanoGlo Substrate and Extracellular Nanoluc Inhibitor (Promega) were added according to manufacturer's guidelines. For lytic cell measurements, digitonin was added to the cells to a final concentration of 50 μg/mL and 20 nM of CRBN Probe was added. To measure NanoBRET in permeabilized cells, extracellular Nluc inhibitor was omitted during the detection step. For all BRET experiments, the Envision 2015 (Perkin Elmer) equipped with a BRET2 Enh mirror, BRET 647 nM/75 nM Bandwidth and BC703 460 nM/80 nM Bandwidth filters was used for readouts. Each read was integrated for 0.5 s.
To determine compound potency (IC50), BRET ratios for each dilution series was first normalized to a % Inhibition value via Equation 1, where “S” represents Sample BRET, “B” represents Background BRET, and “T” represents Total BRET. In this equation, the background control (B) consists of NanoLuc-CRBN expressing cells and no CRBN Probe. The total BRET Ratio (T) consists of NanoLuc-CRBN expressing cells, CRBN Probe, and an amount of DMSO at a concentration equivalent to that added when testing compounds.
Following normalization, the percent inhibition values are plotted as a function of compound concentration and fit to Equation 2. […]
(Bioluminescence resonance energy transfer reports proximity on the nanometre scale.)

In test [3] the target is T2, Gal3 (Human Galectin-3) in THP-1 cells (Homo sapiens, UniProt P17931).
T2 construct: host or cells: THP-1
T2 sequence (P17931 whole entry): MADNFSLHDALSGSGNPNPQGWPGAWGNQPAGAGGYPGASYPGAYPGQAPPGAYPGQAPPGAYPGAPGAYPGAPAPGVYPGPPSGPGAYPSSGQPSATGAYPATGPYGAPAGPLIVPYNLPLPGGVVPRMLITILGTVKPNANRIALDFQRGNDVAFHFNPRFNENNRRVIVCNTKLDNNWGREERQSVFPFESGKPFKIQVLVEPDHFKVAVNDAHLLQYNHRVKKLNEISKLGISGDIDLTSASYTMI
Description: ELISA Gal3 Degradation Assay in THP-1 Cells. The conditions noted are these: 48 hours, culture media Gal3 by ELISA. The format is cell-based. As to the method: [formula] ELISA Gal3 Degradation Assay in THP-1 Cells
THP-1 cells (ATCC, Cat #TIB-202), a human monocyte cell line derived from leukemia were plated at 2E6 cells/mL in 200 uL/well of RPMI 1640 (ThermoFisher, Cat #11835) in 96-well plates. Cells were treated with DMSO as a control and various concentrations of compounds for 48 hours. After the treatment, the culture media were collected. The PBS washed cell pellets were lysed in Lysis Buffer (Cell Signaling, Cat #9803) supplemented with 1XProtease Inhibitor Cocktail (Cell Signaling, Cat #5872). Gal3 levels in culture media and cell lysates were quantified by ELISA assays (Human Galectin-3 DuoSet ELISA kit, R&D Systems, Cat #DY1154) according to manufacturer's instructions. The cell culture media were also used for the assessment of cellular toxicity (LDH Assay kit, R&D Systems, DY994). The IC50 (degradation concentration at 50%) values were calculated based on the cellular Gal3 protein levels using DMSO as the control.
A general note: ELISA stands for enzyme-linked immunosorbent assay.

The mark [4] stands for this setting: test 1, read-out: Supernatant (IC50) test 1.
[5] abbreviates: test 2, read-out: Supernatant (IC50) test 2.

His-tagged recombinant human Gal-3 (hGal-3), sequence (P17931 whole entry): as above

Take `Cc1nc([C@@H]2O[C@H](CO)[C@H](O)[C@H](n3cc(-c4cc(F)c(Cl)c(F)c4)nn3)[C@H]2OCC(=O)NCCOCC(=O)Nc2ccc3c(c2)CN(C2CCC(=O)NC2=O)C3=O)n(-c2cc(Cl)ccc2C(F)(F)F)n1` (stereo partly drawn) [Example 1, 2-(((2S,3R,4S,5R,6R)-2-(1-(5-Chloro-2-(trifluoromethyl)phenyl)-3-methyl-1H-1,2,4-triazol-5-yl)-4-(4-(4-chloro-3,5-difluorophenyl)-1H-1,2,3-triazol-1-yl)-5-hydroxy-6-(hydroxymethyl)tetrahydro-2H-pyran-3-yl)oxy)-N-(2-(2-((2-(2,6-dioxopiperidin-3-yl)-1-oxoisoindolin-5-yl)amino)-2-oxoethoxy)ethyl)acetamide]: the IC50 in test [1] was found to be 0.082 µM; in test [2], 0.78 µM.

On to `Cc1nc([C@@H]2O[C@H](CO)[C@H](O)[C@H](n3cc(-c4cc(F)c(Cl)c(F)c4)nn3)[C@H]2OCC(=O)NCc2ccc(C(=O)Nc3ccc4c(c3)CN(C3CCC(=O)NC3=O)C4=O)cc2)n(-c2cc(Cl)ccc2C(F)(F)F)n1` (stereo partly drawn) [Example 2, 4-((2-(((2S,3R,4S,5R,6R)-2-(1-(5-Chloro-2-(trifluoromethyl)phenyl)-3-methyl-1H-1,2,4-triazol-5-yl)-4-(4-(4-chloro-3,5-difluorophenyl)-1H-1,2,3-triazol-1-yl)-5-hydroxy-6-(hydroxymethyl)tetrahydro-2H-pyran-3-yl)oxy)acetamido)methyl)-N-(2-(2,6-dioxopiperidin-3-yl)-1-oxoisoindolin-5-yl)benzamide], for which the IC50 in test [1] was 0.109 µM; in test [2] it was 0.269 µM.

Regarding `Cc1nc([C@@H]2O[C@H](CO)[C@H](O)[C@H](n3cc(-c4cc(F)c(Cl)c(F)c4)nn3)[C@H]2OCC(=O)N2CC(COc3ccc(C(=O)Nc4ccc5c(c4)CN(C4CCC(=O)NC4=O)C5=O)cc3)C2)n(-c2cc(Cl)ccc2C(F)(F)F)n1` (stereo partly drawn) [Example 7, 4-((1-(2-(((2S,3R,4S,5R,6R)-2-(1-(5-Chloro-2-(trifluoromethyl)phenyl)-3-methyl-1H-1,2,4-triazol-5-yl)-4-(4-(4-chloro-3,5-difluorophenyl)-1H-1,2,3-triazol-1-yl)-5-hydroxy-6-(hydroxymethyl)tetrahydro-2H-pyran-3-yl)oxy)acetyl)azetidin-3-yl)methoxy)-N-(2-(2,6-dioxopiperidin-3-yl)-1-oxoisoindolin-5-yl)benzamide], the concentration for half-maximal inhibition (IC50) in test [1] came out at 0.056 µM; in test [2], 0.601 µM.

As to `Cc1nc([C@@H]2O[C@H](CO)[C@H](O)[C@H](n3cc(-c4cc(F)c(Cl)c(F)c4)nn3)[C@H]2OCC(=O)NCCOCC(=O)N[C@H](C(=O)N2C[C@H](O)C[C@H]2C(=O)NCc2ccc(-c3scnc3C)cc2)C(C)(C)C)n(-c2cc(Cl)ccc2C(F)(F)F)n1` [Example 20], the IC50 in test [1] worked out at 0.05 µM; in test [3] (setting [4]), 0.051 µM; in test [3] (setting [5]), 0.042 µM.

As to `Cc1nc([C@@H]2O[C@H](CO)[C@H](O)[C@H](n3cc(-c4cc(F)c(Cl)c(F)c4)nn3)[C@H]2OCC(=O)NCCOCC(=O)NCc2ccc(S(=O)(=O)Nc3ccc(C)c4c(C#N)c[nH]c34)cc2)n(-c2cc(Cl)ccc2C(F)(F)F)n1` [Example 22], the figures for the IC50 in test [1], in test [3] (setting [4]) and in test [3] (setting [5]) were 0.294 µM, 3.4 µM and 3.34 µM, respectively.

Regarding `Cc1nc([C@@H]2O[C@H](CO)[C@H](O)[C@H](n3cc(-c4cc(F)c(Cl)c(F)c4)nn3)[C@H]2OCC(=O)N[C@H]2C[C@@H](Oc3ccc(C(=O)N[C@H](C(=O)N4C[C@H](O)C[C@H]4C(=O)NCc4ccc(-c5scnc5C)cc4)C(C)(C)C)nc3)C2)n(-c2cc(Cl)ccc2C(F)(F)F)n1` [Example 33], the IC50 in test [1] is 1.01 µM; in test [3] (setting [4]), above 30 µM; in test [3] (setting [5]), above 30 µM.
